One assay deals with S. aureus. Kind of assay: Biofilm amounts on PEA containing polyurethane relative to plain polyurethane. In kind it is cell-based, Staphylococcus aureus. Conditions: 5 wt. % PEA in polyurethane vs 0% PEA. An excerpt:
The instant inventors modified a material that is commonly used in clinical and food processing contexts, polyurethane, with β-phenylethylamine (PEA). To produce the PEA containing polyurethane (PU-PEA), food grade polyurethane (Zythane 7085A™) was impregnated with 0, 2.5, 5.0, and 10.0 weight percent PEA and a heat-melt extruded. At 10 wt. %, PEA formed aggregates and was not anymore uniformly distributed throughout the material (FIG. 17).
The biofilm inhibiting efficacy of 5 wt. % PEA was then tested against six bacterial strains (FIG. 18). E. coli AJW is non-pathogenic and was described as a good former of biofilm, P. aeruginosa is a pathogen that was described as a contaminant on conveyor belts, but also forms biofilm on urinary catheters. S. aureus causes staph infections and can form biofilm in intravenous catheters, E. coli O157:H7 has been studied in multiple foods and on numerous food processing surfaces, and the two E. coli UPEC strains are uropathogens that are commonly found on catheters. PU/PEA had reduced biofilm amounts relative to plain polyurethane for all strains tested. Reductions varied between 5 and 80% in depending on the bacterial pathogen. In particular, this initial PU-PEA material was able to reduce Staphylococcus aureus biofilm by 80% and biofilm of several other bacterial pathogens by 20 to 50%.

In another assay the test system is bacteria. Kind of assay: Live/dead assay with fluorescence dyes. In kind it is cell-based. Conditions: live/dead staining, preliminary data. The method, then: To determine whether the bacteria were being adversely affected by PEA, a live/dead assay was performed where the total bacterial population and the population of dead bacteria were stained with different fluorescence dyes. […] This supports the argument that the bacterial nutrients reduce biofilm amounts without killing the bacteria, therefore, reducing the likelihood of the development of resistance.

The subject of assay [1] is E. coli O157:H7. Kind of assay: Biofilm amounts in liquid beef broth at 10° C. Format: cell-based. To be noted: for effect on bacterial cell counts and biofilm amounts: E. coli O157:H7 grown in liquid beef broth at 10° C.; for IC50: Escherichia coli, read-out: IC50 biofilm.
Assay [2] has as its system E. coli O157:H7. Kind of assay: Bacterial cell number in liquid beef broth at 10° C. In kind it is cell-based. Conditions: Escherichia coli, read-out: IC50 cell number.
Assay [3] relates to E. coli K-12. The assay can be described thus: Biofilm, supplement/control, TB medium. Format: cell-based.
The test system of assay [4] is flhD. The assay can be described thus: flhD, supplement/control, TB medium. In kind it is cell-based, E. coli K-12.
The subject of assay [5] is E. coli K-12. In kind it is cell-based.
Assay [6] concerns C. sakazakii. Kind of assay: Planktonic growth (maximal velocity of OD600) in TSB. In kind it is cell-based. To be noted: Cronobacter sakazakii, 37° C. On the procedure:
(§1) The IC50 values were calculated using […] software (Hitachi Solutions, San Bruno, Calif.).

Assay [7] concerns S. marcescens. The description is as above. Format: cell-based. To be noted: Serratia marcescens, 30° C. The method, then: as §1
For assay [8], the system named is C. sakazakii. Kind of assay: Biofilm amounts, CV assay, 24-well polystyrene plate. Format: cell-based. To be noted: Cronobacter sakazakii, 37° C. An excerpt:
(§2) Data were expressed as OD600.

Assay [9] relates to S. marcescens. The assay is described as above. Conditions: Serratia marcescens, 30° C. Format: cell-based.
From the text: as §2

The test system of assay [10] is C. sakazakii. Kind of assay: Biofilm amounts, ATP assay, 24-well polystyrene plate. In kind it is cell-based. To be noted: Cronobacter sakazakii, 37° C.
Assay [11] deals with S. marcescens. The description is as above. To be noted: Serratia marcescens, 30° C. In kind it is cell-based.
For assay [12], the system named is Y. enterocolitica. Kind of assay: Planktonic growth (maximal velocity of OD600) in TSB. In kind it is cell-based, Yersinia enterocolitica. To be noted: Yersinia enterocolitica, Y. enterocolitica, 37° C. The method, then:
as §1

For assay [13], the system named is Y. enterocolitica. Kind of assay: Biofilm amounts, CV assay, 24-well polystyrene plate. Format: cell-based, Yersinia enterocolitica. Conditions: Yersinia enterocolitica, Y. enterocolitica.
From the text: as §2

Assay [14] relates to Y. enterocolitica. Kind of assay: Biofilm amounts, ATP assay, 24-well polystyrene plate. Format: cell-based, Yersinia enterocolitica. Conditions: Yersinia enterocolitica, Y. enterocolitica.
For assay [15], the system named is Y. enterocolitica. Kind of assay: Motility assay on motility plates. Format: cell-based, Yersinia enterocolitica. To be noted: 5 mg/ml of AAA, 25° C., semi solid tryptone broth agar plates.
Assay [16] relates to flhD. Kind of assay: qPCR of mRNA transcript in response to AAA. To be noted: 5 mg/ml AAA; biofilm associated and planktonic bacteria, 25 and 37° C.
The subject of the next assay is virF. Kind of assay: qPCR of mRNA transcript in response to AAA. To be noted: 5 mg/ml AAA; biofilm, both temperatures. (In general: Real-time PCR tracks product formation cycle by cycle.)
The test system of the next assay is ymoA. Kind of assay: qPCR of mRNA transcript in response to AAA. Conditions: 5 mg/ml AAA.
In a further assay the test system is yadA. Kind of assay: qPCR of mRNA transcript in response to AAA. To be noted: 5 mg/ml AAA.
Assay [17] deals with C. sakazakii. The assay can be described thus: Growth and biofilm assays taken together (growth, CV, ATP). Conditions: Cronobacter sakazakii, read-out: IC50 values, range over growth, CV and ATP assays.
Assay [18] relates to S. marcescens. The description is as above. To be noted: Serratia marcescens, read-out: IC50 values, range over growth, CV and ATP assays.
The subject of assay [19] is Y. enterocolitica. Described as above. To be noted: Yersinia enterocolitica, read-out: IC50 values, range over growth, CV and ATP assays.

In brackets after ≈: the same amount, converted by molar mass. Read-outs that look alike come from different tables or passages of the source.

The values that follow come from US11452292B2, “Biofilm inhibitor and method of inhibiting biofilm” (NDSU Research Foundation, priority 2017, dated 2022).

As usually defined, the IC50 is the concentration that inhibits the measured activity by half.

Turning to `NCCc1ccccc1` [PEA, β-phenylethylamine], the “reduction of Staphylococcus aureus biofilm” value with S. aureus came to 80%. The “viability of the bacteria” value in the assay with bacteria is given as “not impacted”. In the assay with E. coli O157:H7 [1], the “effect on bacterial cell counts and biofilm amounts” value was “inhibit bacterial cell counts and biofilm amounts”; the IC50 was 0.34 mg/mL (≈ 2.81 mM). Besides, in the assay on E. coli O157:H7 [2], the IC50 was found to be 0.32 mg/mL (≈ 2.64 mM). Further, the “Ratio, biofilm (supplement/control)” value with E. coli K-12 [3] came to 1.1. In addition, the “Ratio, flhD (supplement/control)” value in the assay on flhD [4] came out at 1.3. For the same compound, in the assay with E. coli K-12 [5], the “Ratio, growth (supplement/control)” value came to 0.81.
Turning to `Cc1c[nH]c(=O)[nH]c1=O` [thymine], the “effect on bacterial cell counts and biofilm amounts” value in the assay on E. coli O157:H7 [1] is “inhibit bacterial cell counts and biofilm amounts”.
As for `CC(=O)CC(=O)O` [AAA, acetoacetate], the IC50 in the assay on C. sakazakii [6] amounted to 20 mg/mL (≈ 196 mM); with S. marcescens [7] it was 29 mg/mL (≈ 284 mM); with C. sakazakii [8], 22 mg/mL (≈ 215 mM); with S. marcescens [9] it was 35 mg/mL (≈ 343 mM); in the assay on C. sakazakii [10], 24 mg/mL (≈ 235 mM); in the assay on S. marcescens [11] it was 24 mg/mL (≈ 235 mM). The concentration for half-maximal inhibition (IC50) in the assay with Y. enterocolitica [12] is 11 mg/mL (≈ 108 mM); in the assay with Y. enterocolitica [13] (25° C.), 26 mg/mL (≈ 255 mM); in the assay with Y. enterocolitica [13] (37° C.), 14 mg/mL (≈ 137 mM); with Y. enterocolitica [14] (25° C.), 18 mg/mL (≈ 176 mM); in the assay on Y. enterocolitica [14] (37° C.), 12 mg/mL (≈ 118 mM); in the assay with C. sakazakii [17], 20 to 24 mg/mL (≈ 196 to 235 mM). Further, the IC50 with S. marcescens [18] fell in the range of 24 to 35 mg/mL (≈ 235 to 343 mM); with Y. enterocolitica [19] it was 11 to 14 mg/mL (≈ 108 to 137 mM). Moreover, in the assay with Y. enterocolitica [15], the “motility in the presence of AAA” value is listed as “about 0.25 mm/h”. Moreover, the “reduction of mRNA levels of flhD” value with flhD [16] is recorded as “approximately 5 fold”. In the assay with virF, the “reduction of virF transcript” value is “about 3 fold”. In the assay with ymoA, the “effect of AAA on ymoA transcription” value is “no effect”. For the same compound, the “reduction of mRNA levels for yadA” value is ~10 fold with yadA (biofilm bound bacteria at 25° C.) and “approximately 20 fold” with yadA (planktonic bacteria at 37° C.).
Consider `CCCCCCC(N)C(=O)O` (racemic) [D,L-α-aminocaprylic acid], for which, in the assay with E. coli O157:H7 [1], the “effect on bacterial cell counts and biofilm amounts” value was “inhibit bacterial cell counts and biofilm amounts”; the half-maximal inhibitory concentration (IC50) was 1.84 mg/mL (≈ 11.6 mM). Also, the IC50 in the assay on E. coli O157:H7 [2] was 1.96 mg/mL (≈ 12.3 mM). Further, the “Ratio, biofilm (supplement/control)” value in the assay on E. coli K-12 [3] was found to be 0.85. The “Ratio, flhD (supplement/control)” value with flhD [4] was 0.55. Besides, the “Ratio, growth (supplement/control)” value in the assay with E. coli K-12 [5] amounted to 0.26.
For `O=C[C@H](O)[C@H](O)[C@@H](O)CO` [L-lyxose], in the assay with E. coli O157:H7 [1], the “effect on bacterial cell counts and biofilm amounts” value was “inhibit bacterial cell counts and biofilm amounts”. For the same compound, the half-inhibitory concentration (IC50) in the assay with E. coli O157:H7 [1] is 76 mg/mL (≈ 506 mM); in the assay on E. coli O157:H7 [2], 72 mg/mL (≈ 480 mM). Moreover, the “Ratio, biofilm (supplement/control)” value in the assay with E. coli K-12 [3] is 0.71. In addition, the “Ratio, flhD (supplement/control)” value in the assay with flhD [4] was 0.68. Besides, in the assay on E. coli K-12 [5], the “Ratio, growth (supplement/control)” value amounted to 0.98.
For the compound `O=C[C@H](O)[C@@H](O)[C@H](O)CO` [D-xylose], in the assay with E. coli K-12 [3], the “effect on growth and biofilm amounts” value is “inhibitors of growth and biofilm amounts”. The “Ratio, biofilm (supplement/control)” value in the assay with E. coli K-12 [3] (E. coli K-12, TB, 25° C.) was 0.59. For the same compound, in the assay on flhD [4] (E. coli K-12, TB, 25° C.), the “Ratio, flhD (supplement/control)” value was determined as 0.56. Also, the “Ratio, growth (supplement/control)” value with E. coli K-12 [5] (E. coli K-12, TB, 25° C.) is given as 0.91.
Consider `O=P(O)(O)OCC(O)CO` (racemic) [D,L-glycerol phosphate], for which the “effect on bacterial cell counts and biofilm amounts” value in the assay on E. coli O157:H7 [1] was “inhibit bacterial cell counts and biofilm amounts”.
As for `NC(=O)C[C@@H](N)C(=O)O` [D-asparagine], in the assay with E. coli O157:H7 [1], the “effect on bacterial cell counts and biofilm amounts” value was “inhibit bacterial cell counts and biofilm amounts”; the IC50 was 0.2 mg/mL (≈ 1.51 mM). Further, in the assay on E. coli O157:H7 [2], the IC50 came to 0.62 mg/mL (≈ 4.69 mM). Moreover, the “Ratio, biofilm (supplement/control)” value with E. coli K-12 [3] was determined as 1.07. Also, the “Ratio, flhD (supplement/control)” value in the assay with flhD [4] came to 1.2. Also, the “Ratio, growth (supplement/control)” value with E. coli K-12 [5] is 0.9.
For `N[C@@H]1C(O)O[C@H](CO)[C@@H](O)[C@@H]1O` (stereo partly drawn) [D-mannosamine], the “effect on bacterial cell counts and biofilm amounts” value in the assay with E. coli O157:H7 [1] was “inhibit bacterial cell counts and biofilm amounts”.
Take `CCC(=O)C(=O)O` [α-keto-butyric acid]: in the assay on E. coli K-12 [3], the “effect on growth and biofilm amounts” value is “inhibitors of growth and biofilm amounts”. For the same compound, the “Ratio, biofilm (supplement/control)” value with E. coli K-12 [3] (E. coli K-12, TB, 25° C.) is 0.62. Further, the “Ratio, flhD (supplement/control)” value with flhD [4] (E. coli K-12, TB, 25° C.) is on record as 0.57. Further, the “Ratio, growth (supplement/control)” value in the assay with E. coli K-12 [5] (E. coli K-12, TB, 25° C.) turned out to be 0.54.
